Test results reported in ChEMBL document CHEMBL4138214, “Urokinase receptor derived peptides as potent inhibitors of the formyl peptide receptor type 1-triggered cell migration” (Eur J Med Chem, 2018).
pIC50: −log10 of the molar value. Active and inactive are the calls of the source. No cut-off for these calls is given here. Square brackets hold non-standard residues; d marks the D form. Peptide text beside a SMILES is read from it. 1Nal = N[C@@H](Cc1cccc2ccccc12)C(=O)O; 2Nal = N[C@@H](Cc1ccc2ccccc2c1)C(=O)O; pS = N[C@@H](COP(=O)(O)O)C(=O)O

How the values were obtained:
Type in all cases: cell-based
Rattus norvegicus [1] = organism: Rattus norvegicus; assay: Inhibition of FITC-fMLF induced FPR1 internalization in rat RBL-2H3/ETFR cells at 10 uM preincubated for 30 mins followed by agonist addition measured after 30 mins by confocal fluorescent microscopy
Rattus norvegicus [2] = organism: Rattus norvegicus; assay: Inhibition of FITC-fMLF induced FPR1 internalization in rat RBL-2H3/ETFR cells at 10 uM preincubated for 30 mins followed by agonist addition measured after 30 mins by fluorescence assay
[3] = Induction of cell migration in rat RBL2H3/ETFR cells stably expressing FPR1 at 10 nM after 6 hrs by RTCA; details: 0.01 µM
RBL-2H3 = assay: Induction of cell migration in rat RBL2H3 cells at 10 nM after 6 hrs by RTCA; details: rbl-2h3, 6 h, 0.01 µM
Rattus norvegicus [4] = organism: Rattus norvegicus; assay: Antagonist activity at FPR1 in rat RBL-2H3/ETFR cells assessed as inhibition of fMLF-induced cell migration at 10 nM after 6 hrs by RTCA relative to fMLF
[5] = (§1) Antagonist activity at FPR1 in rat RBL-2H3/ETFR cells assessed as inhibition of fMLF-induced cell migration after 4 hrs by RTCA relative to fMLF; details: for pIC50: Rattus norvegicus, RBL-2H3, 4 h, read-out: IC50
Rattus norvegicus [6] = organism: Rattus norvegicus; assay: as §1

IC50 [5] | pIC50 [5] | Compound | inhibition (Rattus norvegicus [1]) | inhibition (Rattus norvegicus [2]) | Activity [3] | Activity (RBL-2H3) | inhibition (Rattus norvegicus [4]) [%] | inhibition (Rattus norvegicus [6])
– | – | CSCC[C@H](NC=O)C(=O)N[C@@H](CC(C)C)C(=O)N[C@@H](Cc1ccccc1)C(=O)O [N-FORMYLMETHIONYL-LEUCYLPHENYLALANINE] | Active | Active | Toxic | – | – | –
– | – | N=C(N)NCCC[C@@H]1NC(=O)[C@H](CCC(=O)O)NC(=O)[C@H](CCCNC(=N)N)NC(=O)[C@H](Cc2ccc(O)cc2)NC(=O)[C@H](CCC(=O)O)NC1=O (cyclo(EREYR)) | – | 61% | Non-Toxic | Non-Toxic | 61 | –
– | – | N=C(N)NCCC[C@@H]1NC(=O)[C@H](CCC(=O)O)NC(=O)[C@H](CCCNC(=N)N)NC(=O)[C@H](Cc2ccccc2)NC(=O)[C@H](CO)NC1=O (cyclo(ERSFR)) | – | Active | Non-Toxic | Non-Toxic | 20 | –
– | – | N=C(N)NCCC[C@H](NC(=O)[C@H](Cc1ccc(O)cc1)NC(=O)[C@H](COP(=O)(O)O)NC(=O)[C@H](CO)NC(=O)[C@@H](N)CCCNC(=N)N)C(N)=O (H-RS[pS]YR-NH2) | inactive | inactive | Non-Toxic | Non-Toxic | 0 | –
– | – | H-SRSRY-NH2 | – | Active | – | – | – | –
– | – | N=C(N)NCCC[C@@H]1NC(=O)[C@H](CCC(=O)O)NC(=O)[C@H](CCCNC(=N)N)NC(=O)[C@H](Cc2ccc3ccccc3c2)NC(=O)[C@H](CO)NC1=O (cyclo([2Nal]RERS)) | – | Active | Non-Toxic | Non-Toxic | 23 | –
Dose-dependent effect | 13.00 | N=C(N)NCCC[C@H](NC(=O)[C@H](COP(=O)(O)O)NC(=O)[C@H](CCCNC(=N)N)NC(=O)[C@@H](N)CO)C(=O)N[C@@H](Cc1ccc(O)cc1)C(N)=O (H-SR[pS]RY-NH2) | Active | 67% | Non-Toxic | Non-Toxic | 67 | –
– | – | N=C(N)NCCC[C@@H]1NC(=O)[C@H](CO)NC(=O)[C@H](CO)NC(=O)[C@H](Cc2ccc(O)cc2)NC(=O)[C@H](CCCNC(=N)N)NC1=O (cyclo(RRYSS)) | inactive | inactive | Non-Toxic | Non-Toxic | 0 | –
– | – | N=C(N)NCCC[C@H](NC(=O)[C@H](CO)NC(=O)[C@H](CCCNC(=N)N)NC(=O)[C@@H](N)COP(=O)(O)O)C(=O)N[C@@H](Cc1ccc(O)cc1)C(N)=O (H-[pS]RSRY-NH2) | – | – | Non-Toxic | Non-Toxic | 58 | –
– | – | N=C(N)NCCC[C@@H]1NC(=O)[C@H](CO)NC(=O)[C@H](CCCNC(=N)N)NC(=O)[C@H](Cc2ccc(O)cc2)NC(=O)[C@H](COP(=O)(O)O)NC1=O (cyclo(RSR[pS]Y)) | – | – | Non-Toxic | Non-Toxic | 31 | –
– | – | N=C(N)NCCC[C@@H]1NC(=O)[C@H](CCC(=O)O)NC(=O)[C@H](CCCNC(=N)N)NC(=O)[C@H](Cc2ccc(O)cc2)NC(=O)[C@H](CO)NC1=O (cyclo(ERSYR)) | – | 55% | Non-Toxic | Non-Toxic | 49 | –
– | – | N=C(N)NCCC[C@@H]1NC(=O)[C@H](CCC(=O)O)NC(=O)[C@H](CCCNC(=N)N)NC(=O)[C@H](Cc2c[nH]c3ccccc23)NC(=O)[C@H](CO)NC1=O (cyclo(ERSWR)) | – | inactive | Non-Toxic | Non-Toxic | 0 | –
– | – | N=C(N)NCCC[C@@H]1NC(=O)[C@H](CO)NC(=O)[C@H](CCCNC(=N)N)NC(=O)[C@H](Cc2ccc(O)cc2)NC(=O)[C@H](CCC(=O)O)NC1=O (cyclo(EYRSR)) | – | – | Non-Toxic | Non-Toxic | 34 | –
– | 13.00 | N=C(N)NCCC[C@@H]1NC(=O)[C@H](CO)NC(=O)[C@H](CCCNC(=N)N)NC(=O)[C@H](Cc2ccc(O)cc2)NC(=O)[C@H](CO)NC1=O (cyclo(RSRSY)) | Active | Active | Non-Toxic | Non-Toxic | 75 | Dose-dependent effect
– | – | N=C(N)NCCC[C@@H]1NC(=O)[C@H](CCC(=O)O)NC(=O)[C@H](CCCNC(=N)N)NC(=O)[C@H](Cc2cccc3ccccc23)NC(=O)[C@H](CO)NC1=O (cyclo([1Nal]RERS)) | – | 62% | Non-Toxic | Non-Toxic | 43 | –
– | – | N=C(N)NCCC[C@@H]1NC(=O)[C@H](COP(=O)(O)O)NC(=O)[C@H](CCCNC(=N)N)NC(=O)[C@H](Cc2ccc(O)cc2)NC(=O)[C@H](CO)NC1=O (cyclo(RSYR[pS])) | – | – | Non-Toxic | Non-Toxic | 36 | –
